Experiment: Transfer of volatiles via headspace from MCT flavor composition to PG plated onto MCC, cyclohexane extraction, GC/MS
Type: physicochemical
Conditions: for (conc in PG/conc in initial oil)*100: affinity for propylene glycol versus MCT oil or air; for (conc in PG/conc in initial oil)*100 / Avg conc in the PG: 6 days room temperature; for Avg conc in the PG / Avg conc in powder: powder 20% PG on 80% MCC; for Avg conc in powder: 6 days room temperature in closed container with MCT flavor composition, average of 2 extractions
Protocol: A flavor composition formulated based on a medium chain triglyceride oil (MCT, solvent A) was filled into a open beaker, and was then placed inside a closed glass container containing a powder consisting of 20% propylene glycol (PG, solvent B) plated onto 80% of microcrystalline cellulose (MCC; purchased from Sigma Aldrich). Then the system was stored in the lab at room temperature. After 6 days, a small sample of powder was removed, an extraction experiment was performed and the extract was analyzed by GC/MS. Extraction solvent: cyclohexane Internal standard: Methyloctanoate (a 6.67 mg/ml solution was prepared by dissolution in cyclohexane) 2 extractions were performed to check the reproducibility.

| (conc in PG/conc in initial oil)*100 | Avg conc in the PG | Avg conc in powder | Compound |
| --- | --- | --- | --- |
| 9.1 | 1091.5 ppm | 273 ppm | CC(C)CC=O [isovalerianic aldehyde] |
| 0.3 | 37.8 ppm | 9 ppm | Decenal |
| 39.9 | 799.0 ppm | 200 ppm | CCc1nccnc1C [2-ethyl-3-methylpyrazine] |
| 2.8 | 113.5 ppm | 28 ppm | CSCCC=O [3-(methylthio)propanal] |
| 0.5 | 40.4 ppm | 10 ppm | Dienal C11 |
| 12.7 | 25.4 ppm | 6 ppm | CCc1ncc(C)nc1C [2-ethyl-3,5-dimethylpirazine] |
| 1.9 | 467.4 ppm | 117 ppm | Dienal C10 |
| 3.9 | 156.9 ppm | 39 ppm | CC(=O)C(C)O (stereo not drawn) [acetylmethylcarbinol] |
| 6.7 | 1615.4 ppm | 404 ppm | CCC(C)C=O (stereo not drawn) [2-methyl butanal] |

Reference: patent US11051538B2, “Plated flavor powders” (FIRMENICH SA, priority 2013, dated 2021)
